Measured values reported in patent US8236533B2, “Process for the production of γ-glutamylcysteine” (NewSouth Innovations PTY Limited, priority 2005, dated 2012).
≈ marks a conversion by molar mass, not a printed value. Where “and” joins values, the source holds several entries; their conditions need not be identical. Identical values can stand only once.

Columns and labels:
[1] = physchem
[2] = aqueous solubility
[3] = isoelectric point (pI); type: physicochemical
[4] = system: glutathione levels; assay: utilization of GGC in mice: glutathione levels; type: in vivo; details: preliminary studies
Excerpt: The final form of GGC, whether it be in the reduced state as γ-glutamylcysteine or in the disulphide form as bis-γ-glutamylcystine, is dependent on the final application of the dipeptide. […] The oxidised form bis-γ-glutamylcystine is more likely to be suitable for application as a nutraceutical supplement as no special precautions to prevent the oxidation of the sulphydryl, would be required, whereas application in the treatment of poisoning or as an antioxidant in food or cosmetics would require the reducing power of the sulphydryl of γ-glutamylcysteine. Whatever the desired form, both are relatively easily interconverted by reduction which can be achieved either chemically (Jocelyn, P. C., Chemical reduction of disulfides. Methods in Enzymology, 1987. 143: p. 246-56), electrochemically (Genders, J. D., N. L. Weinberg, and D. J. Mazur, High yield methods for electrochemical preparation of cysteine and analogues. 1988, U.S. Pat. No. 5,106,463. The Electrosynthesis Company, Inc.) or oxidized to the disulphide form simply by exposing a solution to air (oxygen) with a trace amount of copper or iron salt added to catalyse the reaction.

[5] = stability on removal of water by evaporation; type: physicochemical; details: temperatures above 40° C.
Protocol: Example 13 describes purification of GGC from a mixture comprising GGC and 2-mercaptoethanol, with subsequent freeze-drying. However, it is not expected that freeze drying would be an economic option at industrial scale. Removal of water by conventional evaporation at temperatures above 40° C. results in degradation of the product. However, a process of concentration by nanofiltration is expected to be most suitable at industrial scale as it is both low temperature and a cost effective method for water removal. […] After the removal of the majority of water by nanofiltration and a pH adjustment to the pH of the isoelectric point (GGC=pH 2.8) the addition of an antisolvent such as ethanol or acetone can be added to initiate spontaneous crystallization. The final product can be collected by filtration and dried under reduced pressure.

[6] = physchem; details: pH 9.1, aqueous with cosolvent or surfactant or cyclodextrin, thermodynamic from solid

## COC(=O)[C@@H](N)CSSC[C@H](N)C(=O)OC.Cl.Cl [CDME, cystine dimethyl ester dihydrochloride]
[1]
  solubility: > 20000 µg/mL

## N[C@@H](CSSCCO)C(=O)O [Cys-Merc, cysteine-mercaptoethanol mixed disulphide]
[2]
  aqueous solubility: ~20000 µg/mL (≈ 101 mM)
[3]
  isoelectric point (pI): 5.2 and 5.3

## CCOC(=O)CC[C@H](N)C(=O)O [GEE, glutamic acid γ-ethyl ester]
[3]
  isoelectric point (pI): 5.8

## N[C@@H](CCC(=O)N[C@@H](CS)C(=O)O)C(=O)O [GGC, γ-Glutamylcysteine]
[4]
  glutathione levels after administration: significantly increase glutathione levels
[5]
  stability on conventional evaporation of water: degradation
[3]
  isoelectric point (pI): 2.8

## N[C@@H](CCC(=O)NC(CSSCCO)C(=O)O)C(=O)O (stereo partly shown) [GGC-Merc, γ-glutamylcysteine-mercaptoethanol disulphide]
[3]
  isoelectric point (pI): 3.0

## N[C@@H](CCC(=O)Nc1ccc([N+](=O)[O-])cc1)C(=O)O [GPNA, L-γ-glutamyl-p-nitroanilide]
[2]; pH 8.5 in 100 mM phosphate buffer
  solubility limit: 8.4 mM (≈ 2240 µg/mL)

## CC(=O)NCSC[C@H](N)C(=O)O [S-acetamidomethylcysteine]
[2]; water
  solubility: 2000 mM

## N[C@@H](CCC(=O)N[C@@H](CSSC[C@H](NC(=O)CC[C@H](N)C(=O)O)C(=O)O)C(=O)O)C(=O)O [bis-γ-glutamylcystine]
[4]
  glutathione levels after administration: significantly increase glutathione levels

## N[C@@H](CSSC[C@H](N)C(=O)O)C(=O)O [cystine]
[2]; aqueous solution, pH 3, aqueous buffer
  solubility: 100 µg/mL
[2]; phosphate buffer, pH 8.5, aqueous buffer
  solubility: 16.6 mM
[2]; water, 37 °C, pH 9.1, water
  solubility: ~5000 µg/mL
[6]; 50% DMF in diethanolamine (DEA) buffer
  solubility: ~30 mM
[6]; 50% DMF in water
  solubility: ~9000 µg/mL
